For 1 molecule, Carcinogenicity prediction test and Threshold of smell results are on record in US20240391859A1, “ALDEHYDE COMPOSITION” (MITSUBISHI GAS CHEMICAL COMPANY, INC., priority 2021, published 2024).

For one data set, the system named is Bhas42 cells. In words: Carcinogenicity prediction test (transformation test based on OECD GD231). The class given is cell-based. To be noted: in vitro. The method, then: Using the aldehyde compositions obtained in Examples and Lilial (3-(p-tert-butylphenyl)-2-methylpropanal), a transformation test (an in vitro carcinogenicity prediction test using Bhas42 cells) was performed based on OECD GD231 to determine whether the carcinogenicity was negative or positive. When the result of this test is negative, it is predicted that there is no possibility of causing carcinogenicity, and safety is high.

Data set [1] is described as follows: Evaluation of threshold of smell. To be noted: diluted with dipropylene glycol; lower limit concentration at which smell can be distinguished. The method, then:
A filter paper having a width of 8 mm and a length of 15 cm was impregnated with each diluent and a lower limit concentration at which smell can be distinguished by a method in which a specialized panelist sniffs was evaluated. As the lower limit concentration is lower, the threshold of smell is lower, and the intensity and diffusibility of the aroma are more excellent.

`CC(C=O)Cc1ccc(C(C)(C)C)cc1` (centres unmarked) [Comparative Example 5, 3-(p-tert-butylphenyl)-2-methylpropanal]: in the data set with Bhas42 cells, the Carcinogenicity prediction test result is on record as “Positive”. Besides, in data set [1], the Threshold of smell amounted to 1 ppm.
